For one assay, the system named is Synaptophysin. Kind of assay: Western Blot of synaptic protein Synaptophysin in brain regions, 7 days post-administration. The assay is classed as in vivo, mice. The method, then:
(§1) Specifically, ICR mice were administered a single intra-peritoneal injection of psilocybin at a dosage of 4.4 mg/kg, D-Serine at a dosage of 3 g/kg, a combined psilocybin dosage of 4.4 mg/kg+D-Serine dosage of 3 g/kg and compared to control animals (administered a saline vehicle). 7 days post-administration, animals were harvested, and individual brain regions were dissected, homogenized and processed for Western Blot analysis, probing for GAP43, Synaptophysin and SV2A protein expression, using commercially available reagents (Abcam).
(§2) Animals injected with PSIL or D-SER or the combination of the two were specifically probed for changes in synaptic protein expression, for proteins that are pivotally involved in neuroplasticity of the brain, focusing on 4 key regions: the brain frontal cortex, hippocampus, amygdala and striatum.
(§3) In order to comparatively assess all the effects of individual DSER or PSIL and combined DSER and PSIL administration on each brain region, a nested analysis of variance in which the level each of the synaptic proteins was compared to controls was assessed across the four brain regions frontal cortex, hippocampus, amygdala and striatum (FIG. 6).

A further assay concerns SV2A. Kind of assay: Western Blot of synaptic protein SV2A in brain regions, 7 days post-administration. The class given is in vivo, mice. The settings on record: hippocampus; single i.p. injection (D-Serine 3 g/kg or with psilocybin 4.4 mg/kg); 7 days post-administration (FIG. 5). The protocol: as §1, §2, §3
On the technique in general: In western blotting, separated proteins are transferred to a membrane and probed.

The test system of another assay is male ICR mice. Kind of assay: Head twitch response (HTR) induced by psilocybin in mice. The class given is in vivo. An excerpt:
The head twitch response (HTR) induced by serotonergic psychedelic agents such as psilocybin (PSIL) in rodents, is a characteristic behavioral effect mediated by cortical 5-HT2A receptors that is highly correlated with the psychedelic trip induced by these agents in humans.
In order to determine whether the negative effects such as HTR could be blocked in schizophrenic patients administered psilocybin (PSIL) (which ordinarily would produce “trip-induced effects”) upon further receiving clozapine (CLZ), the effect of concurrent CLZ treatment in blocking the HTR-inducing effect of PSIL in mice was examined.
Toward this end, male ICR mice (aged 8 weeks) were implanted with mini car-magnets and were administered the following treatments intraperitoneally (i.p.): • 1. CLZ at a dosage of 1 or 2 mg/kg weight; • 2. PSIL at a dosage of 4.4 mg/kg weight; • 3. CLZ at a dosage of 1 mg/kg weight and PSIL at a dosage of 4.4 mg/kg weight; • 4. CLZ at a dosage of 2 mg/kg weight and PSIL at a dosage of 4.4 mg/kg weight; and • 5. Vehicle (Saline) controls.
CLZ was administered 30 minutes before PSIL. All injection volumes were identical. HTR was assessed in up to 6 mice simultaneously over a 20-minute period using a purpose-built magnetometer and custom software. Experiments were approved by the Authority for Biological and Biomedical Models, Hebrew University
To further extend these studies, it was of interest to determine the HTR effects induced by Psilocybin when mice were pre-administered D-Serine 3000 mg/kg, as opposed to CLZ (FIG. 2A), or D-Serine 1500 mg/kg, as opposed to CLZ (FIG. 2B).

Another assay has as its system GAP43. Nature of the assay: Western Blot of synaptic protein GAP43 in brain regions, 7 days post-administration. The class given is in vivo, mice. The settings on record: for GAP43 protein levels: single i.p. injection (psilocybin 4.4 mg/kg, D-Serine 3 g/kg or both), 7 days post-administration, vs saline controls (FIG. 4). The method, then:
as §1, §2, §3

In another assay the test system is ICR mice. Nature of the assay: MK-801 induced hyperactivity in the open field. The class given is in vivo. Particulars: MK-801 0.1 mg/kg i.p. immediately before open field for one hour (FIG. 3A). The protocol:
Hyperactivity induced in rodents by the NMDA receptor antagonist, MK-801, is a key rodent pharmacological model of acute psychotic features in humans.
Drugs which induce psychosis in humans enhance MK-801 induced hyperactivity in rodents while antipsychotic drugs reduce or block the effect.
In order to determine the interactive effects of PSIL and CLZ, a murine model was used where MK-801 induced hyperactivity, was assessed, which serves as a surrogate system for psychotic symptoms in schizophrenia patients.
Toward this end PSIL and CLZ alone and in combination were evaluated for their effects on MK-801 induced hyperactivity in […].
ICR mice were administered MK-801 intra-peritoneally, at a dose of 0.1 mg/kg immediately before they were placed in an open field for one hour. 30 minutes prior to administration of MK-801, mice were pretreated as follows: • 1. PSIL at a dosage of 4.4 mg/kg; • 2. CLZ at a dosage of 1.0 mg/kg; • 3. PSIL at a dosage of 4.4 mg/kg and CLZ at a dosage of 1.0 mg/kg; • 4. D-Serine (DSR) at a dosage of 3000 mg/kg; • 5. D-cycloserine (DCS) at a dosage of 320 mg/kg; • 6. […]
Activity in the open field was monitored by an overhead camera and was recorded by a Noldus Ethovision apparatus. […] Distance moved/travelled in the open field, center duration and center frequency were evaluated in the open field arena.

[1] abbreviates: across the four brain regions frontal cortex, hippocampus, amygdala and striatum, 7 days post-administration (FIG. 6).

Turning to `N[C@H](CO)C(=O)O` [D-Serine], the “Synaptophysin expression, nested analysis of variance compared to controls” value in the assay on Synaptophysin (setting [1]) is “increasing levels”. The synaptophysin protein expression entry with Synaptophysin (frontal cortex, single i.p. injection D-Serine 3 g/kg, 7 days post-administration (FIG. 5)) is “increased”. Further, the SV2A expression result in the assay with SV2A is recorded as “increased”. Besides, the “PSIL-mediated increased HTR” value in the assay with male ICR mice (D-Serine 3000 mg/kg (FIG. 2A) or 1500 mg/kg (FIG. 2B) pre-administered before Psilocybin) is “significantly reduced”. Besides, in the assay with male ICR mice (DSR alone), the HTR result is “did not affect HTR”. The “PSIL-mediated HTR over time” value with male ICR mice (lower D-serine dose with PSIL (FIG. 2C)) is listed as “consistent over time”. The “GAP43 levels, nested analysis of variance compared to controls” value in the assay with GAP43 (setting [1]) is listed as “increase”. In addition, the GAP43 protein levels result with GAP43 (amygdala) and in the assay on GAP43 (frontal cortex) was “significantly increased” in each case.
As to `C[C@]12N[C@H](Cc3ccccc31)c1ccccc12` [MK-801], in the assay on ICR mice, the “distance travelled in the open field” value is listed as “marked movement”.
For `N[C@@H]1CONC1=O` [DCS, D-cycloserine], the HTR result in the assay with male ICR mice (DCS alone) is given as “did not affect HTR”. For the same compound, the “PSIL-mediated increased HTR over time” value in the assay with male ICR mice (plotted for up to 30 minutes, DCS at doses of over 320 mg/kg with PSIL (FIG. 2E)) was “rapid abrogation”.

Source of the values: patent US20260083759A1, “Combinations Comprising Psychedelics for the Treatment of Schizophrenia and Other Neuropsychiatric and Neurologic Disorders” (HADASIT MEDICAL RESEARCH SERVICES AND DEVELOPMENT LTD, priority 2022, published 2026).
